Experimental findings from patent US20240140953A1, “INHIBITORS OF MENIN-MLL INTERACTION” (BIOMEA FUSION, INC., priority 2018, published 2024) are described below.

Where two headings read alike, the source gives them in different places.

In one test the target is Menin-MLL (Homo sapiens (Human), UniProt O00255). Kind of test: Menin-MLL in vitro inhibitory activity (Example 101a, Table 2). It is filed as cell-based.
Another test relates to MV-4-11. Kind of test: Long term proliferation assay (Table 3A), MV-4-11. Type of test: cell-based. The settings on record: Homo sapiens, MV4-11. The method, then: (§1) Example 5b: IC50 determination of compounds of invention in various cell lines (Long Term Proliferation Assay)
(§2) The following 5 cell lines are used or can be used for the long term proliferation assay.
(§3) Compounds of invention are tested in the 5 suspension lines by 14-day long-term proliferation assay.
(§4) The compound is tested in 10-pt dose titration (client will determine the starting concentration and the dilution scheme) and the final DMSO concentration is kept at 0.2%.
(§5) Vehicle and media control are also included. All treatments are done in triplicate.
(§6) 3 plates are used for each cell line and 15 plates are used for the 5 cell lines.
(§7) • 1) On Day 0, in a flat bottom 96-well plate, add 100 μL of cells per well at the densities optimized. • 2) Prepare compounds in DMSO at 500× final concentration. Dilute the compounds with DMSO at the dilution. • 3) Dilute the compounds in media at 3×final concentration. Add 50 μL of compound or DMSO at 3× final concentration to each well. Final volume in each well is 150 μL, and final concentration of DMSO is 0.2%. Also include 3 untreated control wells, by adding 50 μL of media alone. 4) Incubate plates for 96 hours. • 5) Count the cells using the Acumen, with capabilities for 96-well plates. Pipette cells up and down to mix in each well, and add desired volume of cells to a new flat bottom poly-D-lysine 96-well plate. Add Calcein AM at 1 μM final concentration. Let cells sit at RT for 10 mins followed by a quick spin to get cells settled on the bottom of the wells. Incubate the plate for additional 40 mins in the incubator. Take out the plate and read by Acumen. Calculate the cell numbers taken into account the dilution factors. • 6) Split the master plate. To do this take the total viable cell count calculated using step 5). Take the average of the replicates for each dose in order to be used in splitting the cells. • 7) Use a 96 well V-bottom plate to spin down the cells to remove old media and compound to split the cells. Based on the split ratio place the proper amount of media and cells into the V-bottom plate, and spin the plate at 1100 rpm for 5 minutes. • 8) Following the spin remove the media, careful not to disturb the cellpellet. • 9) Re-suspend pellet in 100 μL fresh media, and add to a new 96-well flat bottom plate. • 10) Add fresh compound, in the same manner as Step 3). • 11) Incubate plates for 72 hours. Repeat steps 5)-10) on Day 7. • 12) Incubate plates for 96 hours. Repeat Step 5)-10) on Day 11. • 13) Incubate 72 hours and repeat step 5) to take a final count. • 14) Data Analysis
(§8) To calculate growth for days 4, 7, 11, and 14: • Calculate the split factor for day 4 to 7, day 7 to 11, and day 11-14.

In test [1] the test system is MOLM-13. Kind of test: Long term proliferation assay (Table 3A), MOLM-13. Type of test: cell-based. The settings on record: Homo sapiens. The procedure:
as §1, §2, §3, §4, §5, §6, §7, §8

The next test has as its target menin (Homo sapiens (Human), UniProt O00255). Kind of test: Kd (Table 3A). It is filed as binding.
Test [2] concerns KG-1. Kind of test: Long term proliferation, Cell Titer-Glo (Table 3B), KG-1. The note with it: Homo sapiens, KG-1, Cell Titer-Glo. It is filed as cell-based.
The test system of test [3] is MOLM-13. Kind of test: Long term proliferation, Cell Titer-Glo (Table 3B), MOLM-13. The note with it: Homo sapiens, MOLM-13, Cell Titer-Glo. Type of test: cell-based.
Test [4] relates to OCI-AML-3. Kind of test: Long term proliferation, Cell Titer-Glo (Table 3B), OCI-AML-3. It is filed as cell-based. The note with it: Homo sapiens, OCI-AML-3, Cell Titer-Glo.
For test [5], the system named is MV4-11. Kind of test: Long term proliferation, Cell Titer-Glo (Table 3B), MV4-11. Type of test: cell-based. The settings on record: Homo sapiens, MV4-11, Cell Titer-Glo.
In test [6] the test system is KG-1. Kind of test: Long term proliferation, InCell (Table 3C), KG-1. Type of test: cell-based. The settings on record: Homo sapiens, KG-1, InCell. The method, then: as §3, §4, §5, §7, §8
Test [7] concerns MOLM-13. Kind of test: Long term proliferation, InCell (Table 3C), MOLM-13. Type of test: cell-based. The note with it: Homo sapiens, MOLM-13, InCell. The method, then:
as §3, §4, §5, §7, §8

The subject of test [8] is OCI-AML-3. Kind of test: Long term proliferation, InCell (Table 3C), OCI-AML-3. Type of test: cell-based. The note with it: Homo sapiens, OCI-AML-3, InCell. The procedure:
as §3, §4, §5, §7, §8

The test system of test [9] is MV4-11. Kind of test: Long term proliferation, InCell (Table 3C), MV4-11. Type of test: cell-based. The note with it: Homo sapiens, MV4-11, InCell. The method, then: as §3, §4, §5, §7, §8
Where [10] appears, read: MV-4-11, Day 4, read-out: MV-4-11 Day 4 IC50.
Where [11] appears, read: MV-4-11, Day 11, read-out: MV-4-11 Day 11 IC50.
Where [12] appears, read: 96 h, MOLM-13, Day 4, read-out: MOLM-13 Day 4 IC50.
[13] abbreviates: 264 h, MOLM-13, Day 11, read-out: MOLM-13 Day 11 IC50.
Where [14] appears, read: 96 h, Day 4, read-out: Day 4 IC50.
Setting [15] is: 168 h, Day 7, read-out: Day 7 IC50.
The mark [16] stands for this setting: 264 h, Day 11, read-out: Day 11 IC50.
The mark [17] stands for this setting: 336 h, Day 14, read-out: Day 14 IC50.

menin, sequence (O00255 whole entry, species assumed): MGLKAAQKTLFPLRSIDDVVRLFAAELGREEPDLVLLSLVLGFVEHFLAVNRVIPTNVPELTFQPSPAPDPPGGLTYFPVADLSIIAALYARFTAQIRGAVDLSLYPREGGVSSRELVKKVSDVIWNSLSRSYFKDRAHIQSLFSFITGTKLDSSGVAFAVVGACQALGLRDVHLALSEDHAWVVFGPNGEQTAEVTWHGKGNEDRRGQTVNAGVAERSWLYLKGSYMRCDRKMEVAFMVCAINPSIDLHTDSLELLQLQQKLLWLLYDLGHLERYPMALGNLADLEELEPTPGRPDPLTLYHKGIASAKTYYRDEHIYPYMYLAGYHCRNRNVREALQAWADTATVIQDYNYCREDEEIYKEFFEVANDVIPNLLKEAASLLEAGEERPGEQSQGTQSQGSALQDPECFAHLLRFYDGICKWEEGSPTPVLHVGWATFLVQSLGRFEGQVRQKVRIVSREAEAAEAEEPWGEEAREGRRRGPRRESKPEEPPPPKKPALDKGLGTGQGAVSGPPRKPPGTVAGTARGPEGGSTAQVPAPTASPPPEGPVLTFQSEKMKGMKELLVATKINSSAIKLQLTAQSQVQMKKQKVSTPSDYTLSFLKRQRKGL
Menin-MLL, sequence (O00255 whole entry): as the sequence (O00255 whole entry, species assumed) above

As to `O=C(Nc1ccc(-c2cc3c(N4CCOCC4)ncnc3[nH]2)cc1)Nc1cc(-c2cccnc2)no1` [Compound 2, 1-(4-(4-morpholino-7H-pyrrolo[2,3-d]pyrimidin-6-yl)phenyl)-3-(3-(pyridin-3-yl)isoxazol-5-yl)urea], the IC50 at Menin-MLL is 240 nM; in the test with MV-4-11 (setting [10]), 174 nM; with MV-4-11 (setting [11]), 55 nM; in the test with MOLM-13 [1] (setting [12]), 74 nM; in the test with MOLM-13 [1] (setting [13]), 54 nM. The compound also returned a Kd on menin greater than 1000 nM.
Turning to `O=C(Nc1ccc(-c2cc3c(N4CCOCC4)ncnc3[nH]2)cc1)Nc1cc(-c2ccncc2)no1` [Compound 8, 1-{4-[4-(morpholin-4-yl)-7H-pyrrolo[2,3-d]pyrimidin-6-yl]phenyl}-3-[3-(pyridin-4-yl)-1,2-oxazol-5-yl]urea], the IC50 in the test with MV-4-11 (setting [10]) stood at 355 nM; in the test on MV-4-11 (setting [11]) it was 71 nM; in the test on MOLM-13 [1] (setting [12]), 224 nM; in the test on MOLM-13 [1] (setting [13]) it was 55 nM; with KG-1 [2] (setting [14]), 4900 nM; in the test on KG-1 [2] (setting [15]), 2950 nM. Also, the IC50 with KG-1 [2] (setting [16]) worked out at 2140 nM; with KG-1 [2] (setting [17]), 680 nM; in the test on MOLM-13 [3] (setting [14]), 320 nM; in the test on MOLM-13 [3] (setting [15]), 200 nM; in the test with MOLM-13 [3] (setting [16]), 150 nM; with MOLM-13 [3] (setting [17]), 250 nM. The IC50 with OCI-AML-3 [4] (setting [14]) came to 590 nM; with OCI-AML-3 [4] (setting [15]) it was 560 nM; in the test with OCI-AML-3 [4] (setting [16]), 550 nM; in the test on OCI-AML-3 [4] (setting [17]), 550 nM; in the test with MV4-11 [5] (setting [14]) it was 540 nM; in the test on MV4-11 [5] (setting [15]), 100 nM. For the same compound, the IC50 in the test on MV4-11 [5] (setting [16]) stood at 200 nM; in the test with MV4-11 [5] (setting [17]) it was 60 nM; in the test with KG-1 [6] (setting [14]), 3240 nM; in the test on KG-1 [6] (setting [16]) it was 2090 nM; in the test on MOLM-13 [7] (setting [14]), 370 nM; with MOLM-13 [7] (setting [16]), 190 nM. For the same compound, the IC50 worked out at 490 nM in the test with OCI-AML-3 [8] (setting [14]), 540 nM in the test with OCI-AML-3 [8] (setting [16]), 350 nM with MV4-11 [9] (setting [14]) and 280 nM with MV4-11 [9] (setting [16]). Moreover, the Kd on menin is 250 nM.
